Bounds are passed on as bounds.

The assay deals with SH-SY5Y M-currents (KCNQ2, KCNQ3 and KCNQ5). Description: SH-SY5Y native cell line FLIPR assay (voltage-sensitive dye DiBAC). Conditions: FLIPR assay, SH-SY5Y native cell line; Table 2; read-out: SH-SY5Y EC50. The class given is cell-based, mouse neuroblastoma, rat glioma hybrid cell line. The method in brief: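 Response is peak DiBAC fluorescence change, normalised to the maximum from a positive control agent, sampled every 30 s over 25 min. Before compound addition, SH-SY5Y cells differentiated with PGE1 plus isomethylbutylxanthine were dye-loaded for 1 h in EBSS with […] DiBAC.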
As for `O=C(CC(F)(F)F)Nc1nc2ccc(F)cn2c1-c1cccc(Cl)c1` [Compound 284, N-(3-(3-chlorophenyl)-6-fluoroimidazo[1,2-a]pyridin-2-yl)-3,3,3-trifluoropropanamide], the concentration giving a half-maximal response (EC50) was 500 to 3000 nM.

With `O=C(CCC(F)(F)F)Nc1nc2ccc(F)cn2c1-c1cccc(Cl)c1` [Compound 285, N-(3-(3-chlorophenyl)-6-fluoroimidazo[1,2-a]pyridin-2-yl)-4,4,4-trifluorobutanamide], the 50% effective concentration (EC50) was in the range of 500 to 3000 nM.

`CC1(CC(=O)Nc2nc3ccc(F)cn3c2-c2cccc(Cl)c2)CCCC1` [Compound 286, N-(3-(3-chlorophenyl)-6-fluoroimidazo[1,2-a]pyridin-2-yl)-2-(1-methylcyclopentyl)acetamide]: the concentration for a half-maximal effect (EC50) is below 500 nM.

Consider `CC(C)(C)OCCC(=O)Nc1nc2ccc(F)cn2c1-c1cccc(C(F)(F)F)c1` [Compound 287, 3-tert-butoxy-N-(6-fluoro-3-(3-(trifluoromethyl)phenyl)imidazo[1,2-a]pyridin-2-yl)propanamide], for which the EC50 lay within 500 to 3000 nM.

Regarding `CC(C)C(C)C(=O)Nc1nc2ccc(F)cn2c1-c1cccc(C(F)(F)F)c1` (centres unmarked) [Compound 288, N-(6-fluoro-3-(3-(trifluoromethyl)phenyl)imidazo[1,2-a]pyridin-2-yl)-2,3-dimethylbutanamide], the EC50 is 500 to 3000 nM.

Regarding `O=C(Nc1nc2ccc(F)cn2c1-c1cccc(C(F)(F)F)c1)C1CCCC1` [Compound 289, N-(6-fluoro-3-(3-(trifluoromethyl)phenyl)imidazo[1,2-a]pyridin-2-yl)cyclopentanecarboxamide], the EC50 is below 500 nM.

With `O=C(Nc1nc2ccc(F)cn2c1-c1ccc(OC(F)(F)F)cc1)C1CCCC1` [Compound 290, N-(6-fluoro-3-(4-(trifluoromethoxy)phenyl)imidazo[1,2-a]pyridin-2-yl)cyclopentanecarboxamide], the 50% effective concentration (EC50) was below 500 nM.

On to `O=C(Nc1nc2ccc(F)cn2c1-c1ccc(OC(F)(F)F)cc1)C1CCCCCC1` [Compound 291, N-(6-fluoro-3-(4-(trifluoromethoxy)phenyl)imidazopyridin-2-yl)cycloheptanecarboxamide], for which the concentration giving a half-maximal response (EC50) is below 500 nM.

Turning to `O=C(Nc1nc2ccc(F)cn2c1-c1ccc(OC(F)(F)F)cc1)C1Cc2ccccc2C1` [Compound 292, N-(6-fluoro-3-(4-(trifluoromethoxy)phenyl)imidazo[1,2-a]pyridin-2-yl)-2,3-dihydro-1H-indene-2-carboxamide], the EC50 was 500 to 3000 nM.

Consider `O=C(Cc1ccccc1)Nc1nc2ccc(F)cn2c1-c1ccc(OC(F)(F)F)c(F)c1` [Compound 295, N-(6-fluoro-3-(3-fluoro-4-(trifluoromethoxy)phenyl)imidazo[1,2-a]pyridin-2-yl)-2-phenylacetamide], for which the 50% effective concentration (EC50) is below 500 nM.

As to `O=C(Cc1ccc(F)cc1)Nc1nc2ccc(F)cn2c1-c1ccc(OC(F)(F)F)c(F)c1` [Compound 296, N-(6-fluoro-3-(3-fluoro-4-(trifluoromethoxy)phenyl)imidazo[1,2-a]pyridin-2-yl)-2-(4-fluorophenyl)acetamide], the concentration giving a half-maximal response (EC50) was below 500 nM.

Turning to `O=C(Cc1ccc(C(F)(F)F)cc1)Nc1nc2ccc(F)cn2c1-c1ccc(OC(F)(F)F)c(F)c1` [Compound 297, N-(6-fluoro-3-(3-fluoro-4-(trifluoromethoxy)phenyl)imidazo[1,2-a]pyridin-2-yl)-2-(4-(trifluoromethyl)phenyl)acetamide], the EC50 was below 500 nM.

For `O=C(Cc1cccc(Cl)c1)Nc1nc2ccc(F)cn2c1-c1ccc(OC(F)(F)F)c(F)c1` [Compound 298, 2-(3-chlorophenyl)-N-(6-fluoro-3-(3-fluoro-4-(trifluoromethoxy)phenyl)imidazo[1,2-a]pyridin-2-yl)acetamide], the concentration giving a half-maximal response (EC50) was below 500 nM.

Regarding `O=C(Cc1ccc(C(F)(F)F)cc1)Nc1nc2ccc(F)cn2c1-c1cccc(Cl)c1` [Compound 299, N-(3-(3-chlorophenyl)-6-fluoroimidazo[1,2-a]pyridin-2-yl)-2-(4-(trifluoromethyl)phenyl)acetamide], the half-maximal effective concentration (EC50) lay in the range of 500 to 3000 nM.

Consider `O=C(Cc1cccc(Cl)c1)Nc1nc2ccc(F)cn2c1-c1cccc(Cl)c1` [Compound 300, 2-(3-chlorophenyl)-N-(3-(3-chlorophenyl)-6-fluoroimidazo[1,2-a]pyridin-2-yl)acetamide], for which the EC50 is below 500 nM.

On to `O=C(Cc1ccc(Cl)cc1)Nc1nc2ccc(F)cn2c1-c1cccc(Cl)c1` [Compound 301, 2-(4-chlorophenyl)-N-(3-(3-chlorophenyl)-6-fluoroimidazo[1,2-a]pyridin-2-yl)acetamide], for which the 50% effective concentration (EC50) is below 500 nM.

Regarding `O=C(CC1CCCC1)Nc1nc2ccc(F)cn2c1-c1cccc(Cl)c1` [Compound 302, N-(3-(3-chlorophenyl)-6-fluoroimidazo[1,2-a]pyridin-2-yl)-2-cyclopentylacetamide], the half-maximal effective concentration (EC50) is below 500 nM.

With `O=C(CCC(F)(F)F)Nc1nc2ccc(F)cn2c1-c1ccc(OC(F)(F)F)c(F)c1` [Compound 303, 4,4,4-trifluoro-N-(6-fluoro-3-(3-fluoro-4-(trifluoromethoxy)phenyl)imidazo[1,2-a]pyridin-2-yl)butanamide], the EC50 was 500 to 3000 nM.

Consider `CC1(CC(=O)Nc2nc3ccc(F)cn3c2-c2ccc(OC(F)(F)F)c(F)c2)CCCC1` [Compound 304, N-(6-fluoro-3-(3-fluoro-4-(trifluoromethoxy)phenyl)imidazo[1,2-a]pyridin-2-yl)-2-(1-methylcyclopentyl)acetamide], for which the EC50 was below 500 nM.

For `Cc1ccc2nc(NC(=O)CC(C)(C)C)c(-c3cccc(OC(F)(F)F)c3)n2n1` [Compound 305, 3,3-dimethyl-N-(6-methyl-3-(3-(trifluoromethoxy)phenyl)imidazo[1,2-b]pyridazin-2-yl)butanamide], the EC50 was below 500 nM.

For `Cc1ccc2nc(NC(=O)Cc3ccc(F)cc3)c(-c3cccc(OC(F)(F)F)c3)n2n1` [Compound 306, 2-(4-fluorophenyl)-N-(6-methyl-3-(3-(trifluoromethoxy)phenyl)imidazo[1,2-b]pyridazin-2-yl)acetamide], the 50% effective concentration (EC50) was below 500 nM.

Consider `COc1ccn2c(-c3ccc(C(F)(F)F)cc3)c(NC(=O)CC(F)(F)F)nc2c1` [Compound 307, 3,3,3-trifluoro-N-(7-methoxy-3-(4-(trifluoromethyl)phenyl)imidazo[1,2-a]pyridin-2-yl)propanamide], for which the EC50 was in the range of 3000 to 10000 nM.

With `Cc1ccc2nc(NC(=O)Cc3ccc(F)cc3)c(-c3cccc(C(F)(F)F)c3)n2n1` [Compound 309, 2-(4-fluorophenyl)-N-(6-methyl-3-(3-(trifluoromethyl)phenyl)imidazo[1,2-b]pyridazin-2-yl)acetamide], the half-maximal effective concentration (EC50) is below 500 nM.

As to `O=C(Cc1ccc(Cl)cc1)Nc1nc2ccc(F)cn2c1-c1ccc(OC(F)(F)F)c(F)c1` [Compound 310, 2-(4-chlorophenyl)-N-(6-fluoro-3-(3-fluoro-4-(trifluoromethoxy)phenyl)imidazo[1,2-a]pyridin-2-yl)acetamide], the 50% effective concentration (EC50) is below 500 nM.

For the compound `O=C(CC1CCCC1)Nc1nc2ccc(F)cn2c1-c1ccc(OC(F)(F)F)c(F)c1` [Compound 311, 2-cyclopentyl-N-(6-fluoro-3-(3-fluoro-4-(trifluoromethoxy)phenyl)imidazo[1,2-a]pyridin-2-yl)acetamide], the EC50 was below 500 nM.

In the case of `CC(C)C(C)C(=O)Nc1nc2ccc(F)cn2c1-c1ccc(OC(F)(F)F)c(F)c1` (centres unmarked) [Compound 312, N-(6-fluoro-3-(3-fluoro-4-(trifluoromethoxy)phenyl)imidazo[1,2-a]pyridin-2-yl)-2,3-dimethylbutanamide], the concentration giving a half-maximal response (EC50) is below 500 nM.

`CC(CC(=O)Nc1nc2ccc(F)cn2c1-c1ccc(OC(F)(F)F)c(F)c1)C(F)(F)F` (centres unmarked) [Compound 313, 4,4,4-trifluoro-N-(6-fluoro-3-(3-fluoro-4-(trifluoromethoxy)phenyl)imidazo[1,2-a]pyridin-2-yl)-3-methyl butanamide]: the EC50 was below 500 nM.

Regarding `CC(C)C(C)C(=O)Nc1nc2ccc(F)cn2c1-c1cccc(Cl)c1` (centres unmarked) [Compound 314, N-(3-(3-chlorophenyl)-6-fluoroimidazo[1,2-a]pyridin-2-yl)-2,3-dimethylbutanamide], the EC50 is below 500 nM.

With `CC(CC(=O)Nc1nc2ccc(F)cn2c1-c1cccc(Cl)c1)C(F)(F)F` (centres unmarked) [Compound 315, N-(3-(3-chlorophenyl)-6-fluoroimidazo[1,2-a]pyridin-2-yl)-4,4,4-trifluoro-3-methylbutanamide], the 50% effective concentration (EC50) is 500 to 3000 nM.

As for `O=C(Cc1ccc(F)cc1)Nc1nc2ncc(Cl)cn2c1-c1ccc(C(F)(F)F)cc1` [Compound 317, N-(6-chloro-3-(4-(trifluoromethyl)phenyl)imidazo[1,2-a]pyrimidin-2-yl)-2-(4-fluorophenyl)acetamide], the EC50 lay in the range of 500 to 3000 nM.

In the case of `CC(CC(=O)Nc1nc2ncc(Cl)cn2c1-c1ccc(C(F)(F)F)cc1)C(F)(F)F` (centres unmarked) [Compound 318, N-(6-chloro-3-(4-(trifluoromethyl)phenyl)imidazo[1,2-a]pyrimidin-2-yl)-4,4,4-trifluoro-3-methylbutanamide], the EC50 lay within 500 to 3000 nM.

Regarding `CC(C)(C)CC(=O)Nc1nc2ncc(Cl)cn2c1-c1cccc(Cl)c1` [Compound 319, N-(6-chloro-3-(3-chlorophenyl)imidazo[1,2-a]pyrimidin-2-yl)-3,3-dimethylbutanamide], the concentration for a half-maximal effect (EC50) was in the range of 3000 to 10000 nM.

On to `O=C(Cc1ccc(F)cc1)Nc1nc2ncc(Cl)cn2c1-c1cccc(Cl)c1` [Compound 320, N-(6-chloro-3-(3-chlorophenyl)imidazo[1,2-a]pyrimidin-2-yl)-2-(4-fluorophenyl) acetamide], for which the 50% effective concentration (EC50) fell in the range of 3000 to 10000 nM.

In the case of `CC(CC(=O)Nc1nc2ncc(Cl)cn2c1-c1cccc(Cl)c1)C(F)(F)F` (centres unmarked) [Compound 321, N-(6-chloro-3-(3-chlorophenyl)imidazo[1,2-a]pyrimidin-2-yl)-4,4,4-trifluoro-3-methylbutanamide], the 50% effective concentration (EC50) fell in the range of 3000 to 10000 nM.

For `CC(C)(C)CC(=O)Nc1nc2ncc(Cl)cn2c1-c1ccc(C(F)(F)F)cc1` [Compound 322, N-(6-chloro-3-(4-(trifluoromethyl)phenyl)imidazo[1,2-a]pyrimidin-2-yl)-3,3-dimethylbutanamide], the concentration giving a half-maximal response (EC50) fell in the range of 3000 to 10000 nM.

Source of the values: patent US9018208B2, “Heterocycles as potassium channel modulators” (Icagen Inc., priority 2007, dated 2015).
